Measured values: patent US8470340B2, “Peptides presenting an epitope of a domain of factor H binding protein and methods of use” (priority 2008, dated 2013)

Experiments:
JAR 4 [1] = experiment: ELISA binding of native fHbp sequence peptides; parameters: species or system murine; conditions: peptides from the native v.1 fHbp sequence
JAR 4 [2] = experiment: ELISA binding of mAb to site-specific mutant recombinant v.1 fHbp; parameters: species or system murine
Procedure: Site-specific mutagenesis was used to test the role of amino acid residues involved in the JAR 4 anti-fHbp mAb epitope. Mutagenesis was performed using the QuikChange II kit (Stratagene) using 10 ng of plasmid template and the manufacturer's protocols. For testing residues putatively involved in mAb epitopes, mutagenesis reactions were performed on pET21-based plasmids encoding a wild-type fHbp gene. Site-specific mutagenesis was used to introduce the H26A and K27A substitution into the pET21 plasmid encoding v.1 fHbp from MC58. Mutant fHbp genes were confirmed by DNA sequencing as described for the wild-type plasmids, above.
Site-directed mutagenesis of residues 25, 26 and 27 was performed, each of which was individually changed to alanine in fHbp from the v.1 group (gene from MC58). These mutants were created using the non-signal containing sequence from strain MC58 (MVAAD . . . GLAAKQ) (SEQ ID NO:73), and are referred to as D25A, H26A and K27A, respectively. The amino acid sequences of the portions of the A domains of these mutants is provided in FIG. 7, Panel A. Results of the binding experiment between mutated fHbp and the various JAR mAbs are shown in FIG. 6.

Molecule | binding to JAR 4 by ELISA (JAR 4 [1]) | also measured
ADALTAPLDHKDK [SEQ ID NO: 32] | no detectable binding | 
DHKDKGLQSLTLD [SEQ ID NO: 33] | no detectable binding | 
H26A: recombinant v.1 fHbp (gene from MC58) with residue 26 changed to alanine (protein) CSSGGGGVAADIGAGLADALTAPLDAKDKGLQSLTLDQSVRKNEKLKLAAQGAEKTYGNGDSLNTGKLKNDKVSRFDFIRQIEVDGQLITLESGEFQVYKQSHSALTAFQTEQIQDSEHSGKMVAKRQFRIGDIAGEHTSFDKLPEGGRATYRGTAFGSDDAGGKLTYTIDFAAKQGNGKIEHLKSPELNVDLAAADIKPDGKRHAVISGSVLYNQAEKGSYSLGIFGGKAQEVAGSAEVKTVNGIRHIGLAAKQHHHHHH |  | decrease in JAR 4-reactivity compared with wild-type recombinant fHbp (JAR 4 [2]; v.1 fHbp (gene from MC58) alanine mutants): approximately 10 fold
K27A: recombinant v.1 fHbp (gene from MC58) with residue 27 changed to alanine (protein) CSSGGGGVAADIGAGLADALTAPLDHADKGLQSLTLDQSVRKNEKLKLAAQGAEKTYGNGDSLNTGKLKNDKVSRFDFIRQIEVDGQLITLESGEFQVYKQSHSALTAFQTEQIQDSEHSGKMVAKRQFRIGDIAGEHTSFDKLPEGGRATYRGTAFGSDDAGGKLTYTIDFAAKQGNGKIEHLKSPELNVDLAAADIKPDGKRHAVISGSVLYNQAEKGSYSLGIFGGKAQEVAGSAEVKTVNGIRHIGLAAKQHHHHHH |  | JAR 4 binding compared with wild-type recombinant fHbp (JAR 4 [2]; v.1 fHbp (gene from MC58) alanine mutant): eliminated detectable JAR 4 binding
